# Measurements reported in patent publication US20180188224A1, “METHOD FOR CONSTRUCTING A SENSORY SPACE” (CENTRE SCIENTIFIQUE ET TECHNIQUE DU BATIMENT (CSTB), priority 2015, published 2018).
# Where “and” joins values, the source holds several entries; their conditions need not be identical. Equal values may be shown once.
# Tests used:
# [1] = representative compound of a primary taste; cited from earlier work
# [2] = system: four non-smoking volunteers (2 men and 2 women); assay: Hedonic score, 11-point scale (0 very unpleasant to 10 very pleasant, 5 neutral); assay type: in vivo, human
# Experimental: (§1) In this test, four non-smoking volunteers (2 men and 2 women) were chosen from 12 people for their performance in taste recognition. Their mean age was 32 years, ranging from 24 to 40 years. […] These four people were trained for several months to recognize and detect the four basic tastes, and also regarding the procedures of sensory and physiological analysis.
# (§2) The four basic tastes (sweet, salty, sour and bitter) were used. The solutions were prepared with citric acid for the sour taste, caffeine for the bitter taste, sodium chloride for the salty taste and sucrose for the sweet taste (all purchased from Sigma Aldrich, France) in Evian water. Evian water was also used as control and blank. Each taste was prepared with the four concentrations mentioned in table 1.
# (§3) The amount of solution to be tested was standardized at 10 ml. In order to impregnate the whole of the oral cavity, the subjects kept the solution in their mouth for 5 s before swallowing it.
# (§4) The sessions were individual and the subjects were asked not to eat or drink anything for at least 1 h before the test. They arrived 15 min before the start of the session in order to acclimatize to the environmental conditions, in particular the temperature of the room (kept constant at 23° C.) and to be resting seated on a comfortable chair. The 16 solutions for testing and two additional samples of water containing solely Evian water, added to the references, were presented monadically following a test order determined from a “balanced incomplete block design”. During a session, 9 samples out of 18 were presented to minimize sensory fatigue. In addition, a sample of Evian was always tested as a “blank” sample in order to avoid the first-order effect (Lawless, H. T. & Heymann, H., 2010, Sensory evaluation of food: Principles and practices. Springer, New York) and was excluded from the analysis. A light signal was sent to give the instruction to test the sample. When the disturbance to the nervous system returned to its baseline level (after approximately 1 min), a second light signal indicated to the subjects that they should complete a questionnaire regarding the stimulus tested previously. The first part of the questionnaire was linked to the identification of the taste (i.e. determining the quality of the taste); the subjects had to choose between five labels: sweet, salty, sour, bitter or neutral. They then had to assign a taste intensity score on an 11-point scale (from 0 “not intense” (i.e. taste of Evian only) to 10 “very intense”) and finally to give a hedonic score on an 11-point scale (from 0 “very unpleasant” to 10 “very pleasant”, 5 being “neutral”).
# (§5) This procedure was repeated for each of the 9 stimuli. A session lasted approximately 45 min including a debriefing at the end of the test to ensure understanding of the sense of the signal variations. The experiment was repeated 12 times per subject, meaning that the data are composed of 6 data sets per subject and per product and 12 data sets for the Evian product per subject. Thus, the database consists of 432 samples.
# The effect of the taste on the hedonic and intensity scores was analyzed by an analysis of variance (ANOVA) including the product effect, the subject effect and the product-subject interaction. The subject effect was fixed because there were only 4 subjects and the results could only be applied to a particular schema. The differences were considered to be significant at a level of 0.05.
# [3] = system: four non-smoking volunteers (2 men and 2 women); assay: Taste identification questionnaire, trained panel (count of 6 repetitions per subject in which the stimulus was given each taste label; level of recognition %); assay type: in vivo, human; conditions: human, in vivo
# Experimental: as §1, §2, §3, §4, §5
# [4] = system: subject 3; assay: Skin blood microcirculation (SKBF) response to taste stimuli, PCA sensory space (ESRP); assay type: in vivo, human; conditions: concentration 3
# Source text: A Periflux PF 5010 (Perimed AB, Sweden) system was chosen, which enables non-invasive monitoring of blood perfusion in the capillaries, arterioles and venules.
# The unit of blood perfusion is arbitrary and corresponds to the product of the mean rate of displacement of the red blood cells by their concentration. The system Periflux PF 5010 has a 780 nm, 1 mm diameter laser beam without thermal effect. An optical fiber probe PR407 is used. The low-energy laser beam is transmitted by the probe to the tissue. A portion of the light reflects off the static structures and another portion of the light reflects off the moving blood cells. When the light reflects off a moving cell, the wavelength is modified, which corresponds to the Doppler effect. The scattered light collected by the optical fiber is used to calculate the perfusion value. The measurement is expressed in perfusion units (PU). Recording was carried out on the pad of the index finger of the non-dominant hand, due to the high level of vascularization of this zone. The perfusion signals were recorded by an 8-channel PowerLab PL35088/35 acquisition system; the data were collected at a frequency of 1 kHz and analyzed by the LabChart® software (AD instruments Ltd, United Kingdom).
# . Then, the peak was analyzed manually by selecting the whole of the peak and analyzing it with the LabChart® software (FIG. 1).
# Several shape parameters were extracted from the signal (i.e. amplitude, duration, gradient). […]
# The SKBF responses were analyzed individually by one-way ANOVA (product effect), the subjects having their own “preferential channel” (Lacey, J. I., Bateman, D. E. & VanLEHN, R., 1953, Autonomic response specificity: An experimental study. Psychosomatic Medicine, 15, 8-21). […]
compound,measurement,setting,value
"Cn1c(=O)c2c(ncn2C)n(C)c1=O [Caffeine, caffeine]",detection threshold,[1],0.05 to 0.35 g/L
same,hedonic score,[2]; concentration 3,3.5±1.8
same,hedonic score,[2]; concentration 4 (highest),3.5±2.3
same,Individual recognition score: Bitter,[3],6 (9×) and 4 (2×) and 5 (4×) and 3
same,Individual recognition score: Neutral,[3],0 (11×) and 1 (3×) and 3 and 2
same,Individual recognition score: Salty,[3],0
same,Individual recognition score: Sour,[3],0 (14×) and 1 (2×)
same,Individual recognition score: Sweet,[3],0 (15×) and 1
same,Level of Recognition %: Bitter,[3],83% and 84%
same,Level of Recognition %: Salty,[3],0%
same,Level of Recognition %: Sour,[3],0% and 4%
same,Level of Recognition %: Sweet,[3],0% and 4%
same,"SKBF disturbance (signal width, area of the peak; ANOVA)",[4],significantly stronger disturbance than the others
